# Results reported in the supplement of paper PMC10307832.
# Tests used:
# Assay in all cases: relative viability (nuclei count vs DMSO), 5 days (fraction); higher = more cells survive
# 17-AAG + OSI-027 = compound: C=CCNC1=C2C[C@@H](C)C[C@H](OC)[C@H](O)[C@@H](C)/C=C(\C)[C@H](OC(N)=O)[C@@H](OC)/C=C\C=C(/C)C(=O)NC(=CC1=O)C2=O [17-AAG] + COc1cccc2cc(-c3nc([C@H]4CC[C@H](C(=O)O)CC4)n4ncnc(N)c34)[nH]c12 [OSI-027] (partner 0.5 µM)
# Summary of the method: (§1)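 Medians of duplicate plates are given as relative viability. That measure is the nuclei count in treated wells divided by the count in vehicle wells. Counts were taken on 4× images of lung cancer cell lines in 1536-well plates, 5 days after pin-tool dosing the day after seeding with one drug alone or a fixed anchor-drug dose plus five library-drug doses (not always all listed) in √10 steps.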
# 17-AAG + Crizotinib = compound: C=CCNC1=C2C[C@@H](C)C[C@H](OC)[C@H](O)[C@@H](C)/C=C(\C)[C@H](OC(N)=O)[C@@H](OC)/C=C\C=C(/C)C(=O)NC(=CC1=O)C2=O [17-AAG] + C[C@@H](Oc1cc(-c2cnn(C3CCNCC3)c2)cnc1N)c1c(Cl)ccc(F)c1Cl [Crizotinib] (partner 1 µM)
# Summary of the method: as §1
# 17-AAG + Tozasertib = compound: C=CCNC1=C2C[C@@H](C)C[C@H](OC)[C@H](O)[C@@H](C)/C=C(\C)[C@H](OC(N)=O)[C@@H](OC)/C=C\C=C(/C)C(=O)NC(=CC1=O)C2=O [17-AAG] + Cc1cc(Nc2cc(N3CCN(C)CC3)nc(Sc3ccc(NC(=O)C4CC4)cc3)n2)n[nH]1 [Tozasertib] (partner 0.1 µM)
# Summary of the method: as §1
# 17-AAG + Linsitinib = compound: C=CCNC1=C2C[C@@H](C)C[C@H](OC)[C@H](O)[C@@H](C)/C=C(\C)[C@H](OC(N)=O)[C@@H](OC)/C=C\C=C(/C)C(=O)NC(=CC1=O)C2=O [17-AAG] + C[C@]1(O)C[C@@H](c2nc(-c3ccc4ccc(-c5ccccc5)nc4c3)c3c(N)nccn32)C1 [Linsitinib] (partner 1 µM)
# Summary of the method: as §1
Cell Line,relative viability (17-AAG + OSI-027; first compound 0.00128 µM),relative viability (17-AAG + OSI-027; first compound 0.004048 µM),relative viability (17-AAG + OSI-027; first compound 0.0128 µM),relative viability (17-AAG + OSI-027; first compound 0.04048 µM),relative viability (17-AAG + OSI-027; first compound 0.128 µM),relative viability (17-AAG + Crizotinib; first compound 0.00128 µM),relative viability (17-AAG + Crizotinib; first compound 0.004048 µM),relative viability (17-AAG + Crizotinib; first compound 0.0128 µM),relative viability (17-AAG + Crizotinib; first compound 0.04048 µM),relative viability (17-AAG + Crizotinib; first compound 0.128 µM),relative viability (17-AAG + Tozasertib; first compound 0.00128 µM),relative viability (17-AAG + Tozasertib; first compound 0.004048 µM),relative viability (17-AAG + Tozasertib; first compound 0.0128 µM),relative viability (17-AAG + Tozasertib; first compound 0.04048 µM),relative viability (17-AAG + Tozasertib; first compound 0.128 µM),relative viability (17-AAG + Linsitinib; first compound 0.00128 µM),relative viability (17-AAG + Linsitinib; first compound 0.004048 µM),relative viability (17-AAG + Linsitinib; first compound 0.0128 µM),relative viability (17-AAG + Linsitinib; first compound 0.04048 µM),relative viability (17-AAG + Linsitinib; first compound 0.128 µM)
COR-L 105,0.719,0.829,0.704,0.351,0.306,0.961,0.9,0.793,0.568,0.661,0.458,0.356,0.384,0.713,0.418,0.834,0.895,1,0.644,0.666
ABC-1,0.393,0.493,0.56,0.508,0.458,1.19,1.08,1.04,1.3,0.898,0.163,0.2,0.185,0.207,0.175,0.866,0.773,0.876,0.761,0.816
HCC-15,0.628,0.54,0.179,0.107,0.106,0.767,0.758,0.456,0.4,0.132,0.429,0.453,0.365,0.124,0.0778,0.879,0.894,0.613,0.387,0.213
RERF-LC-KJ,0.62,0.637,0.231,0.268,0.22,0.894,0.831,0.901,0.616,0.232,0.551,0.754,0.293,0.275,0.257,0.857,0.886,0.923,0.881,0.275
NCI-H1993,0.586,0.636,0.593,0.394,0.41,0.932,0.969,0.899,0.537,0.403,0.56,0.591,0.585,0.42,0.453,0.764,0.718,0.711,0.573,0.5
NCI-H358,0.768,0.41,0.0521,0.0586,0.0417,0.752,0.268,0.152,0.118,0.0862,0.115,0.0905,0.0894,0.0684,0.0644,0.817,0.892,0.148,0.161,0.131
NCI-H1915,0.606,0.605,0.482,0.088,0.0931,0.89,0.899,0.871,0.878,0.223,0.455,0.442,0.401,0.392,0.111,1.05,1.08,1.14,1.07,0.83
SK-LU-1,0.342,0.17,0.102,0.0747,0.0783,0.888,0.435,0.242,0.232,0.176,0.426,0.243,0.128,0.152,0.139,1.19,0.455,0.352,0.212,0.191
LOU-NH91,0.666,0.618,0.443,0.359,0.316,0.666,0.624,0.516,0.365,0.353,0.663,0.475,0.39,0.327,0.307,0.874,0.678,0.587,0.478,0.311
NCI-H2405,0.636,0.686,0.532,0.223,0.181,0.868,0.837,0.922,0.303,0.163,0.776,0.765,0.451,0.28,0.156,1.02,0.737,0.262,0.219,0.194
NCI-H2126,0.778,0.758,0.479,0.231,0.291,1.08,1.02,1.01,0.951,0.43,0.9,0.842,0.44,0.26,0.298,0.753,0.688,0.776,0.692,0.373
HCC-827,0.826,0.785,0.728,–,0.394,0.941,0.91,0.943,–,0.754,0.402,0.427,0.467,–,0.432,0.902,0.958,0.946,–,0.855
NCI-H322M,0.465,0.364,0.329,0.285,0.271,0.811,0.92,0.979,0.65,0.442,0.478,0.443,0.337,0.316,0.325,1.04,0.938,0.99,0.484,0.334
HOP-62,0.879,0.806,0.6,0.44,0.112,0.938,1.04,1.02,0.935,0.248,0.363,0.466,0.386,0.212,0.17,0.783,0.917,1.08,0.819,0.455
HCC-44,0.54,0.429,0.229,0.141,0.116,0.823,0.746,0.766,0.204,0.122,0.898,0.753,0.293,0.19,0.135,0.643,0.709,0.686,0.662,0.119
